Results as given in patent publication EP0942906B1, “COMPOUNDS USEFUL FOR INHIBITION OF FARNESYL PROTEIN TRANSFERASE” (SCHERING CORPORATION, priority 1996, dated 1998).
Where two headings read alike, the source gives them in different places.

Experiments:
Details in all cases: range stated for the listed group of compounds
Human tumor cells = assay: Soft Agar Assay (anchorage-independent growth, colony count after MTT staining); assay type: cell-based
Protocol: Anchorage-independent growth is a characteristic of tumorigenic cell lines. Human tumor cells are suspended in growth medium containing 0.3% agarose and an indicated concentration of a farnesyl transferase inhibitor. The solution is overlayed onto growth medium solidified with 0.6% agarose containing the same concentration of farnesyl transferase inhibitor as the top layer. After the top layer is solidified, plates are incubated for 10-16 days at 37°C under 5% CO2 to allow colony outgrowth. After incubation, the colonies are stained by overlaying the agar with a solution of MTT (3-[4,5-dimethylthiazol-2-yl]-2.5-diphenyltetrazolium bromide, Thiazolyl blue) (1 mg/mL in PBS). Colonies can be counted and the IC50's can be determined.

[1] = target: farnesyl protein transferase (Homo sapiens, UniProt P49354+P49356); assay: FPT IC50, inhibition of farnesyl protein transferase, in vitro enzyme assay (procedure of WO 95/10516); assay type: biochemical
farnesyl protein transferase, sequence (P49356 whole entry, one chain of several): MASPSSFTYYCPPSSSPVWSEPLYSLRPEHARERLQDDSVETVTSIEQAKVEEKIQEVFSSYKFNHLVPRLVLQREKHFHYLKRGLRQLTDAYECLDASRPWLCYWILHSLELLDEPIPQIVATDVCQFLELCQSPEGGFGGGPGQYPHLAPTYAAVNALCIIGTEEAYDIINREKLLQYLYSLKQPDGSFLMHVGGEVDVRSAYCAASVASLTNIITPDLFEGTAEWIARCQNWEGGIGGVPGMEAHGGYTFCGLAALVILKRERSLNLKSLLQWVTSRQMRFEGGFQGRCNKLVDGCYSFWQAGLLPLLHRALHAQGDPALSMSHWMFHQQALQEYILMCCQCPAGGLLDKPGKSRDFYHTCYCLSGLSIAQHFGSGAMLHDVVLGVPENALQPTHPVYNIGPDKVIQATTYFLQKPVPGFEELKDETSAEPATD
Protocol: (§1) FPT IC50 (inhibition of farnesyl protein transferase, in vitro enzyme assay) and COS Cell IC50 (Cell-Based Assay) were determined following the assay procedures described in WO 95/10516, published April 20, 1995. GGPT IC50 (inhibition of geranylgeranyl protein transferase, in vitro enzyme assay), Cell Mat Assay, and anti-tumor activity (in vivo anti-tumor studies) could be determined by the assay procedures described in WO 95/10516.

COS Cell = COS Cell IC50 (Cell-Based Assay, procedure of WO 95/10516)
Protocol: as §1

[2] = k-ras, read-out: FPT IC50 (k-ras)
[3] = ras form not stated, read-out: FPT IC50
[4] = H-ras, read-out: FPT IC50 (H-ras)

Compound | IC50 (Human tumor cells) [nM] | IC50 [1, 2] [nM] | IC50 [1, 3] [nM] | IC50 [1, 4] [nM] | IC50 (COS Cell; read-out: Cos Cell) [nM] | IC50 (COS Cell; read-out: Cos Cell IC50) [nM]
CC(C)=NOCC(=O)N1CCC(CC(=O)N2CCC([C@H]3c4ncc(Br)cc4CCc4cc(Cl)cc(Br)c43)CC2)CC1 [Compound 9.0-B] | ≥ 19.5 | 14.5 to 71.2 | 0.7 to 18 |  | ≥ 9 | 
O=C(O)CCCC(=O)N1CCC(CC(=O)N2CCC([C@H]3c4ncc(Br)cc4CCc4cc(Cl)cc(Br)c43)CC2)CC1 [Compound 19.0-B] | ≥ 19.5 |  | 0.7 to 18 |  | ≥ 9 | 
NCCC(=O)N1CCC(CC(=O)N2CCC([C@H]3c4ncc(Br)cc4CCc4cc(Cl)cc(Br)c43)CC2)CC1 [Compound 88.0-B] | ≥ 19.5 |  | 0.7 to 18 |  | ≥ 9 | 
O=C(CON=Cc1cc[n+]([O-])cc1)N1CCC(CC(=O)N2CCC(C3c4ncc(Br)cc4CCc4cc(Cl)cc(Br)c43)CC2)CC1 (stereo not drawn) [Compound 22.0-B] | ≥ 19.5 |  | 0.7 to 18 |  | ≥ 9 | 
O=C(Cc1c[nH]cn1)N1CCC(CC(=O)N2CCC([C@H]3c4ncc(Br)cc4CCc4cc(Cl)cc(Br)c43)CC2)CC1 [Compound 30.0-B] | ≥ 19.5 |  | 0.7 to 18 |  | ≥ 9 | 
O=C(CC1CCN(C(=O)[C@@H]2CCCN2)CC1)N1CCC([C@H]2c3ncc(Br)cc3CCc3cc(Cl)cc(Br)c32)CC1 [Compound 10.0] | ≥ 19.5 | 14.5 to 71.2 |  | 2 to 31.7 |  | 10 to 700
O=C(O)CCC(=O)N1CCC(CC(=O)N2CCC([C@H]3c4ncc(Br)cc4CCc4cc(Cl)cc(Br)c43)CC2)CC1 [Compound 18.0-B] | ≥ 19.5 | 14.5 to 71.2 | 0.7 to 18 | 2 to 31.7 | ≥ 9 | 
O=C(Cc1cccs1)N1CCC(CC(=O)N2CCC([C@H]3c4ncc(Br)cc4CCc4cc(Cl)cc(Br)c43)CC2)CC1 [Compound 82.0-B] | ≥ 19.5 |  | 0.7 to 18 |  | ≥ 9 | 
O=C(O)CCCCC(=O)N1CCC(CC(=O)N2CCC([C@H]3c4ncc(Br)cc4CCc4cc(Cl)cc(Br)c43)CC2)CC1 [Compound 107.0-B] | ≥ 19.5 |  | 0.7 to 18 |  | ≥ 9 | 
O=C(CC1CCN(C(=O)CC2CCCO2)CC1)N1CCC([C@H]2c3ncc(Br)cc3CCc3cc(Cl)cc(Br)c32)CC1 (stereo partly drawn) [Compound 114.4-B] | ≥ 19.5 |  | 0.7 to 18 |  | ≥ 9 | 
CC(C)(C)OC(=O)NCCCC(=O)N1CCC(CC(=O)N2CCC([C@H]3c4ncc(Br)cc4CCc4cc(Cl)cc(Br)c43)CC2)CC1 [Compound 89.0-B] | ≥ 19.5 |  | 0.7 to 18 |  | ≥ 9 | 
N#CCC(=O)N1CCC(CC(=O)N2CCC([C@H]3c4ncc(Br)cc4CCc4cc(Cl)cc(Br)c43)CC2)CC1 [Compound 44.0-B] | ≥ 19.5 |  | 0.7 to 18 |  | ≥ 9 | 
O=C1NC(=O)C(CC(=O)N2CCC(CC(=O)N3CCC([C@H]4c5ncc(Br)cc5CCc5cc(Cl)cc(Br)c54)CC3)CC2)N1 (stereo partly drawn) [Compound 77.0-B] | ≥ 19.5 |  | 0.7 to 18 |  | ≥ 9 | 
CN(C)CCC(=O)N1CCC(CC(=O)N2CCC(C3c4ncc(Br)cc4CCc4cc(Cl)cc(Br)c43)CC2)CC1 (single isomer, unassigned; (+)) [Compound 12.3] | ≥ 19.5 | 14.5 to 71.2 |  | 2 to 31.7 |  | 10 to 700

Continued, in another order:

IC50 (Human tumor cells) [nM] | IC50 [1, 2] [nM] | IC50 [1, 3] [nM] | IC50 [1, 4] [nM] | Compound | IC50 (COS Cell; read-out: Cos Cell) [nM] | IC50 (COS Cell; read-out: Cos Cell IC50) [nM]
≥ 19.5 |  | 0.7 to 18 |  | COC(=O)CCCCC(=O)N1CCC(CC(=O)N2CCC([C@H]3c4ncc(Br)cc4CCc4cc(Cl)cc(Br)c43)CC2)CC1 [Compound 101.0-B] | ≥ 9 | 
≥ 19.5 |  | 0.7 to 18 |  | O=C(CC1CCN(C(=O)Cn2cccc2)CC1)N1CCC([C@H]2c3ncc(Br)cc3CCc3cc(Cl)cc(Br)c32)CC1 [Compound 34.0-B] | ≥ 9 | 
≥ 19.5 |  | 0.7 to 18 |  | O=C(CC1CCOCC1)N1CCC(CC(=O)N2CCC([C@H]3c4ncc(Br)cc4CCc4cc(Cl)cc(Br)c43)CC2)CC1 [Compound 85.0-B] | ≥ 9 | 
≥ 19.5 |  | 0.7 to 18 |  | O=C(C(=O)N1CCC(CC(=O)N2CCC([C@H]3c4ncc(Br)cc4CCc4cc(Cl)cc(Br)c43)CC2)CC1)c1cccs1 [Compound 81.0-B] | ≥ 9 | 
≥ 19.5 |  |  | 2 to 31.7 | COC(=O)CCC(=O)N1CCC(CC(=O)N2CCC(C3c4ncc(Br)cc4CCc4cc(Cl)cc(Br)c43)CC2)CC1 (stereo not drawn) [Compound 15.2] |  | 10 to 700
≥ 19.5 |  | 0.7 to 18 |  | O=C(O)c1cccn1CC(=O)N1CCC(CC(=O)N2CCC([C@H]3c4ncc(Br)cc4CCc4cc(Cl)cc(Br)c43)CC2)CC1 [Compound 52.0-B] | ≥ 9 | 
≥ 19.5 |  | 0.7 to 18 |  | CC(C)(C)OC(=O)N1C[C@H](O)C[C@H]1C(=O)N1CCC(CC(=O)N2CCC([C@H]3c4ncc(Br)cc4CCc4cc(Cl)cc(Br)c43)CC2)CC1 [Compound 24.0-B] | ≥ 9 | 
≥ 19.5 |  | 0.7 to 18 | 2 to 31.7 | O=C(CC1CCN(C(=O)CN2C(=O)CSC2=O)CC1)N1CCC([C@H]2c3ncc(Br)cc3CCc3cc(Cl)cc(Br)c32)CC1 [Compound 79.0-B] | ≥ 9 | 
≥ 19.5 | 14.5 to 71.2 | 0.7 to 18 |  | Cc1nccn1CC(=O)N1CCC(CC(=O)N2CCC([C@H]3c4ncc(Br)cc4CCc4cc(Cl)cc(Br)c43)CC2)CC1 [Compound 10.0-B] | ≥ 9 | 
≥ 19.5 | 14.5 to 71.2 | 0.7 to 18 |  | O=C(CC1CCN(C(=O)Cn2cnc3cccnc32)CC1)N1CCC([C@H]2c3ncc(Br)cc3CCc3cc(Cl)cc(Br)c32)CC1 [Compound 13.0-B] | ≥ 9 | 
≥ 19.5 |  | 0.7 to 18 |  | O=C(CC1CCN(C(=O)CC2COCCO2)CC1)N1CCC([C@H]2c3ncc(Br)cc3CCc3cc(Cl)cc(Br)c32)CC1 (stereo partly drawn) [Compound 114.2-B] | ≥ 9 | 
≥ 19.5 |  | 0.7 to 18 |  | O=C(O)C[C@H](O)CC(=O)N1CCC(CC(=O)N2CCC([C@H]3c4ncc(Br)cc4CCc4cc(Cl)cc(Br)c43)CC2)CC1 [Compound 74.0-B] | ≥ 9 | 
≥ 19.5 |  | 0.7 to 18 |  | O=C(CON=Cc1ccccc1O)N1CCC(CC(=O)N2CCC(C3c4ncc(Br)cc4CCc4cc(Cl)cc(Br)c43)CC2)CC1 (stereo not drawn) [Compound 95.0-B] | ≥ 9 | 
≥ 19.5 |  | 0.7 to 18 |  | CCOC(=O)C[C@@H](CC(=O)N1CCC(CC(=O)N2CCC([C@H]3c4ncc(Br)cc4CCc4cc(Cl)cc(Br)c43)CC2)CC1)OC(C)=O [Compound 16.0-B] | ≥ 9 | 
≥ 19.5 |  | 0.7 to 18 |  | CN(C)C(=O)C(=O)N1CCC(CC(=O)N2CCC([C@H]3c4ncc(Br)cc4CCc4cc(Cl)cc(Br)c43)CC2)CC1 [Compound 33.0-B] | ≥ 9 | 
≥ 19.5 | 14.5 to 71.2 | 0.7 to 18 |  | O=C(CC1CCN(C(=O)CN2CCS(=O)(=O)CC2)CC1)N1CCC([C@H]2c3ncc(Br)cc3CCc3cc(Cl)cc(Br)c32)CC1 [Compound 6.0-B] | ≥ 9 | 
≥ 19.5 |  | 0.7 to 18 |  | O=C(OCc1ccccc1)c1cccn1CC(=O)N1CCC(CC(=O)N2CCC([C@H]3c4ncc(Br)cc4CCc4cc(Cl)cc(Br)c43)CC2)CC1 [Compound 55.0-B] | ≥ 9 | 
